Assay results from US6110949A, “N-(substituted glycyl)-4-cyanothiazolidines, pharmaceutical compositions containing them and their use in inhibiting dipeptidyl peptidase-IV” (Novartis AG, priority 1999, dated 2000).
Where a name gives a salt, the structure may show the parent alone.

Tests used:
Assay type in all cases: biochemical
rat plasma DPP-IV = target: T1, rat plasma DPP-IV (Rattus norvegicus, UniProt P14740); assay: Inhibition of DPP-IV activity in rat plasma; conditions: substrate H-Glycine-Proline-AMC, pH 7.8, room temperature, 20 min
T1 construct: from tissue; host or cells: rat plasma
T1 sequence (P14740 37-767 limits assumed): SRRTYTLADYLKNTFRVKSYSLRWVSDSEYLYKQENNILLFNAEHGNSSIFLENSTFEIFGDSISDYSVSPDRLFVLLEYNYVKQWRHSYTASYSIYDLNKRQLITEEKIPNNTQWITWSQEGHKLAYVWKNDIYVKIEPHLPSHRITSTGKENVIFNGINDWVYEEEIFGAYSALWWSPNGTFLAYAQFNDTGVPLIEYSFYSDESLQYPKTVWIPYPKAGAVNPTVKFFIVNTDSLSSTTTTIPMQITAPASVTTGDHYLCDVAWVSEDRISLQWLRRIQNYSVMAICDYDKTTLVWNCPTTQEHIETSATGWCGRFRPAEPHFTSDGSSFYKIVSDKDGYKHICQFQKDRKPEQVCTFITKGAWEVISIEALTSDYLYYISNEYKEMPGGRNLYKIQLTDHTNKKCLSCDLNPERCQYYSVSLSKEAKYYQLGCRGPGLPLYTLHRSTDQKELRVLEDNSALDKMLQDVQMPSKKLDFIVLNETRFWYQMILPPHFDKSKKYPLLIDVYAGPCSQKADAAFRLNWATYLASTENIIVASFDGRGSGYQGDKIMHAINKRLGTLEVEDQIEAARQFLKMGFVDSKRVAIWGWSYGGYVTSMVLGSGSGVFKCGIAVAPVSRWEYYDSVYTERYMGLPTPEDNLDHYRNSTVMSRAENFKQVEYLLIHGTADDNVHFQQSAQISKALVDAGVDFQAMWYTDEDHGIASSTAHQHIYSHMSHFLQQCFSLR
Experimental: (§1) 192-197 (1992). Briefly, five μl of plasma are added to 96-well flat-bottom mictotiter plates (Falcon), followed by the addition of 5 μl of 80 mM MgCI2 in incubation buffer (25 mM HEPES, 140 mM NaCl, 1% RIA-grade BSA, pH 7.8). After a 5 min. incubation at room temperature, the reaction is initiated by the addition of 10 μl of incubation buffer containing 0.1 mM substrate (H-Glycine-Proline-AMC; AMC is 7-amino-4-methylcoumarin). The plates are covered with aluminum foil (or kept in the dark) and incubated at room temperature for 20 min. After the 20 min. reaction, fluorescence is measured using a CytoFluor 2350 fluorimeter (Excitation 380 nm Emission 460 nm; sensitivity setting 4). Test compounds are typically added as 2 μl additions and the assay buffer volume is reduced to 13 μl. A fluorescence-concentration curve of free AMC is generated using 0-50 μM solutions of AMC in assay buffer. The curve generated is linear and is used for interpolation of substrate consumption (catalytic activity in nmoles substrate cleaved/min). As with the previous assay, the potency of the test compounds as DPP-IV inhibitors, expressed as IC50, is calculated from 8-point, dose-response curves using a 4 parameter logistic function.

[1] = target: T2, DPP-IV (Caco-2 cell extract) (Homo sapiens, UniProt P27487); assay: Caco-2 DPP-IV Assay (inhibition of DPP-IV activity from human colonic carcinoma cell extracts); conditions: substrate H-Alanine-Proline-pNA, pH 7.4, room temperature, 10 minutes
T2 construct: adding 20 μg solubilized Caco-2 protein; endogenous in cells; host or cells: Caco-2 (ATCC HTB 37), differentiated to induce DPP-IV expression; nonidet-P40 extract
T2 sequence (P27487 whole entry): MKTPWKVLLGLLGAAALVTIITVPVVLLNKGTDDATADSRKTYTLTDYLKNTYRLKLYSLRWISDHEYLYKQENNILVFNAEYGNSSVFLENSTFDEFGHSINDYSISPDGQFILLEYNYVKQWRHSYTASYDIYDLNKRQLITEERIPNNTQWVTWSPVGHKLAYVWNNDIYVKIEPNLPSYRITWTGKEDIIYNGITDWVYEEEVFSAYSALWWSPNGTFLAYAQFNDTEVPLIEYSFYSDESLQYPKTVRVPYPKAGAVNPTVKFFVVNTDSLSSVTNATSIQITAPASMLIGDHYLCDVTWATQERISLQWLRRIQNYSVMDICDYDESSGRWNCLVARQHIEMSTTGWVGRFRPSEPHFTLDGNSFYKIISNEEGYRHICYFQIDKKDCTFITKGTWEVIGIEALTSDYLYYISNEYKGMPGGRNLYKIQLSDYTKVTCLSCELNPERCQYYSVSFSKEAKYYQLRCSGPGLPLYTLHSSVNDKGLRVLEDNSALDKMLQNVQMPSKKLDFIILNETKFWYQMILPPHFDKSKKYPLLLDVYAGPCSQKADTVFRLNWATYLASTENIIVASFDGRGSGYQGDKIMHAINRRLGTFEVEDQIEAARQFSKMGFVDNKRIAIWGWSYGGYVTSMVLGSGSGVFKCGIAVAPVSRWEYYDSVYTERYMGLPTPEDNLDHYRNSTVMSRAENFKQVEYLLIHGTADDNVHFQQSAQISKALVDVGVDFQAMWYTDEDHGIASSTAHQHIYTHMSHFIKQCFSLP
Source text: As indicated above, all of the compounds of formula I, and their corresponding pharmaceutically acceptable acid addition salts, are useful in inhibiting DPP-IV. […] The human colonic carcinoma cell line Caco-2 was obtained from the American Type Culture Collection (ATCC HTB 37). Differentiation of the cells to induce DPP-IV expression was accomplished as described by Reisher, et al. in an article entitled "Increased expression of . . . intestinal cell line Caco-2" in Proc. Natl. Acad. Sci., Vol. 90, pgs. 5757-5761 (1993). Cell extract is prepared from cells solubilized in 10 mM Tris-HCl, 0.15 M NaCl, 0.04 t.i.u. aprotinin, 0.5% nonidet-P40, pH 8.0, which is centrifuged at 35,000 g for 30 min. at 4° C. to remove cell debris. The assay is conducted by adding 20 μg solubilized Caco-2 protein, diluted to a final volume of 125 μl in assay buffer (25 mM Tris-HCl pH 7.4, 140 mM NaCl, 10 mM KCl, 1% bovine serum albumin) to microtiter plate wells. The reaction is initiated by adding 25 μl of 1 mM substrate (H-Alanine-Proline-pNA; pNA is p-nitroaniline). The reaction is run at room temperature for 10 minutes after which time a 19 μl volume of 25% glacial acetic acid is added to stop the reaction. Test compounds are typically added as 30 μl additions and the assay buffer volume is reduced to 95 μl. A standard curve of free p-nitroaniline is generated using 0-500 μM solutions of free pNA in assay buffer. The curve generated is linear and is used for interpolation of substrate consumption (catalytic activity in nmoles substrate cleaved /min). The endpoint is determined by measuring absorbance at 405 nm in a Molecular Devices UV Max microtiter plate reader. The potency of the test compounds as DPP-IV inhibitors, expressed as IC50, is calculated from 8-point, dose-response curves using a 4-parameter logistic function.

human plasma DPP-IV = target: T3, human plasma DPP-IV (Homo sapiens, UniProt P27487); assay: Inhibition of DPP-IV activity in human plasma; conditions: substrate H-Glycine-Proline-AMC, pH 7.8, room temperature, 20 min
T3 construct: from tissue; host or cells: human plasma
T3 sequence (P27487 39-766 limits assumed): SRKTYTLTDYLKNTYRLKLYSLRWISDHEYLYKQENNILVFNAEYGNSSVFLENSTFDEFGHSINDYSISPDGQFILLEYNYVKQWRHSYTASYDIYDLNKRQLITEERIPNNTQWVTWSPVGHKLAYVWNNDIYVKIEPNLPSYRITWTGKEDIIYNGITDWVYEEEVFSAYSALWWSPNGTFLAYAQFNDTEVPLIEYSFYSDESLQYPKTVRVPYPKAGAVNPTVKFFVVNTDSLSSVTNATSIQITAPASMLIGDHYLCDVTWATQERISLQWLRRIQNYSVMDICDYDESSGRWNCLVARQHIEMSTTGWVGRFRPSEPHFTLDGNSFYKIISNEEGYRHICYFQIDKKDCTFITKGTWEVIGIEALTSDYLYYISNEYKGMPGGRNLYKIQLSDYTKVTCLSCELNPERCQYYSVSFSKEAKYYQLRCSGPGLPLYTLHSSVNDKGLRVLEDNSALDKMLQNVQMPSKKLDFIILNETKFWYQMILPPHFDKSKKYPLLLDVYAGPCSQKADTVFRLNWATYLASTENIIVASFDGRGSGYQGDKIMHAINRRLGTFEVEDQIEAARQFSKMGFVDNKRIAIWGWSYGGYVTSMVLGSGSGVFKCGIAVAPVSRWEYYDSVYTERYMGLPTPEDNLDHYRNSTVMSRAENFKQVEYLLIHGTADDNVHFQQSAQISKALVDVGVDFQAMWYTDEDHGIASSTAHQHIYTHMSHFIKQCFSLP
Experimental: as §1

SMILES	IC50 (rat plasma DPP-IV) [nM]	IC50 [1] [nM]	IC50 (human plasma DPP-IV) [nM]
N#C[C@@H]1CSCN1C(=O)CNC1CCCCC1 [Ex. 1, 3-[(cyclohexyl)amino]acetyl-4-cyano-(R)-thiazolidine monohydrochloride]	10	7	10
CC(C)OCCCNCC(=O)N1CSC[C@H]1C#N [Ex. 2, 3-[(3-isopropoxypropyl)amino]acetyl-4-cyano-(R)-thiazolidine monohydrochloride]	1	7	5
CC(C)NCC(=O)N1CSC[C@H]1C#N [Ex. 3, 3-[(isopropyl)amino]acetyl-4-cyano-(R)-thiazolidine monohydrochloride]	3	6	3
